This note sets out measurements from patent publication US20150080438A1, “6,7-Dihydro-5H-benzo[7]annulene derivatives, processes for their preparation, pharmaceutical products comprising them and their use for preparing medicaments” (Bayer Intellectual Property GmbH, priority 2011, published 2015).

Counter-ions that a name gives are not always drawn.

Broadly, the IC50 is the point on the concentration scale where inhibition reaches its midpoint.

The target in one data set is T1, oestrogen receptor (ER) (Homo sapiens, UniProt P03372).
T1 construct: These MVLN cells express, along with the functional oestrogen receptor (ER), a reporter construct; endogenous in cells; host or cells: MVLN cells (MCF7 derivative with ER-responsive luciferase reporter)
T1 sequence (P03372 1-595): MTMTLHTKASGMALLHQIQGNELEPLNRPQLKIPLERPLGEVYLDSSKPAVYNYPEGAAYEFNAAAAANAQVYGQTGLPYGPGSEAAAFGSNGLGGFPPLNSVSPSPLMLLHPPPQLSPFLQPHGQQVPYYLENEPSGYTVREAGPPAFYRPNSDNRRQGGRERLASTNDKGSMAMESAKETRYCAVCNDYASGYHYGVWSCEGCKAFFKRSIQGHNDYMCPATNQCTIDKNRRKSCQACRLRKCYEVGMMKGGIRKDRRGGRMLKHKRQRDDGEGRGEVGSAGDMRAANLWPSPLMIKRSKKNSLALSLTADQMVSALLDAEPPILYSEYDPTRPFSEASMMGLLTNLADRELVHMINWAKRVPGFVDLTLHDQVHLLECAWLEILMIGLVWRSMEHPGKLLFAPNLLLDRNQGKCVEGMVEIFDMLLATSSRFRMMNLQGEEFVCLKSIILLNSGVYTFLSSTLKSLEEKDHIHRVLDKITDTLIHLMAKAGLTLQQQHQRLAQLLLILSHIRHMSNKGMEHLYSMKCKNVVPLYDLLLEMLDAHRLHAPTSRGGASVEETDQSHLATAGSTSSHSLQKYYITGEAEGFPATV
Put plainly: Anti-oestrogenic action in MVLN cells (inhibition of estradiol-induced luciferase, transactivation antagonism). The format is cell-based. The following applies: inhibition of estradiol-induced luciferase activity, read-out: Anti-oestrogenic action in vitro: MVLN transactivation antagonism IC50. A digest of the protocol: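 MCF7-derived MVLN cells carrying an ER-driven luciferase reporter; test compounds applied with estradiol, and anti-oestrogenic action scored as inhibition of the estradiol-induced luciferase signal.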

The test system of data set [1] is ovarian estradiol synthesis. Kind of data set: Stimulation of ovarian oestrogen synthesis (HPG axis) in hormonally intact adult rats. The following applies: 3 mg/kg daily for 10 days, quotient of peripheral estradiol values after and before treatment. In kind it is in vivo, rat. An excerpt:
The clinical use both of pure anti-oestrogens and of various SERMs for the treatment of premenopausal women is limited by their property of stimulating the ovaries through activation of the hypothalamic-pituitary-gonadal axis (HPG axis), which leads to the increase in peripheral estradiol levels (Palomba, S., Orio, F., Jr., Morelli, M., Russo, T., Pellicano, M., Zupi, E., Lombardi, G., Nappi, C., Panici, P. L., and Zullo, F. (2002). Raloxifene administration in premenopausal women with uterine leiomyomas: a pilot study. J Clin Endocrinol Metab 87, 3603-3608). This stimulation of the HPG axis is associated with penetration of the blood-brain barrier and penetration of the brain. To investigate the ovary-stimulating properties of the claimed pharmacological compounds, hormonally intact adult rats were treated with the substances daily for a period of 10 days. The study end point is the quotient of peripheral estradiol values after and before treatment.
Selected claimed pharmacological substances were investigated as described for their stimulating action on the HPG axis or ovarian estradiol synthesis. The selected substances show markedly less stimulation of the ovaries than the control compound raloxifene at equal dosages (cf. Table 5).

In data set [2] the test system is uterus growth induced by 17β-estradiol. Kind of data set: Anti-uterus growth test in the adult rat. The format is in vivo. The settings on record: ovariectomized adult rat, percentage inhibition of uterus growth; for Anti-oestrogenic activity in vivo in % at a dose of 1 mg/kg (rat): 1 mg/kg s.c. d1-d3 with 1.5 μg/kg/day 17β-estradiol; for inhibition in vivo at 0.3 mg/kg: sc, 0.3 mg/kg s.c. d1-d3 with 1.5 μg/kg/day 17β-estradiol, read-out: Anti-oestrogenic activity in vivo in % at a dose of 0.3 mg/kg (rat). An excerpt: The uterus of oestrogen-substituted rats can be used as a test model for detecting a direct action of substances with anti-oestrogenic properties. The parameter of oestrogenic action is estradiol-induced uterus growth in rats, which is inhibited by simultaneous administration of a substance with anti-oestrogenic action. The experimental animals (n=5-6 animals/group) were ovariectomized before the start of the test, to rule out the influence of endogenous oestrogens. After a phase of 6 to 10 days, the test substances are administered s.c. on 3 consecutive days (d1-d3) in combination with a substitution dose of 1.5 μg/kg/day of 17β-estradiol. 17β-estradiol alone serves as positive control, and the excipients serve as negative control. On day 4 (d4) the animals are killed, and the uteri and vaginae are removed and weighed. The organ weights are converted to mg/100 g body weight, then the mean value and the standard deviation are calculated for each dosage. The inhibition of uterus or vaginal growth induced by 17β-estradiol is shown as percentage inhibition. The selected claimed substances were investigated in adult female rats as described for their anti-oestrogenic, inhibitory action on the weight of the uterus. At the dosage used, the substances show a marked anti-oestrogenic action in vivo (Table 3 and Table 4).

Take `CN(CCCCCC1=C(c2ccccc2)CCCc2cc(O)ccc21)CCC[S+]([O-])CCCC(F)(F)C(F)(F)F` (racemic) [Example 2, 9-[5-(Methyl{3-[(RS)-(4,4,5,5,5-pentafluoropentyl)sulphinyl]propyl}amino)pentyl]-8-phenyl-6,7-dihydro-5H-benzo[7]annulen-3-ol]: the IC50 on oestrogen receptor (ER) worked out at 8 nM. The “Stimulation of ovarian oestrogen synthesis: factor at a dose of 3 mg/kg rat” value (shortened to “Stimulation”) in data set [1] stood at 1.8. Moreover, in data set [2], the “Anti-oestrogenic activity in vivo in % at a dose of 1 mg/kg (rat)” value (“Anti-oestrogenic activity in vivo in %” below) amounted to 94% and the inhibition in vivo at 0.3 mg/kg amounted to 51%.
`CN(CCCCCCC1=C(c2ccccc2)CCCc2cc(O)ccc21)CCC[S+]([O-])CCCC(F)(F)C(F)(F)F` (racemic) [Example 64, 9-[6-(Methyl{3-[(RS)-(4,4,5,5,5-pentafluoropentyl)sulphinyl]propyl}amino)hexyl]-8-phenyl-6,7-dihydro-5H-benzo[7]annulen-3-ol]: the IC50 on oestrogen receptor (ER) was 5 nM. Besides, the inhibition in vivo at 0.3 mg/kg in data set [2] was determined as 85%.
In the case of `CN(CCCCCC1=C(c2ccccc2)CCCc2cc(O)ccc21)CCCSCCCC(F)(F)C(F)(F)F` [Example 1, 9-[5-(Methyl{3-[(4,4,5,5,5-pentafluoropentyl)sulphanyl]propyl}amino)pentyl]-8-phenyl-6,7-dihydro-5H-benzo[7]annulen-3-ol], at oestrogen receptor (ER), the IC50 was 37 nM. Also, the “Anti-oestrogenic activity in vivo in %” value in data set [2] is given as 65%.
For `CN(CCCCCC1=C(c2ccccc2)CCCc2cc(O)ccc21)CCCS(=O)(=O)CCCC(F)(F)C(F)(F)F` [Example 3, 9-[5-(Methyl{3-[(4,4,5,5,5-pentafluoropentyl)sulphonyl]propyl}amino)pentyl]-8-phenyl-6,7-dihydro-5H-benzo[7]annulen-3-ol], on oestrogen receptor (ER), the IC50 came to 15 nM. Moreover, the “Anti-oestrogenic activity in vivo in %” value in data set [2] is on record as 64%.
For the compound `CN(CCCCCC1=C(c2cccc(O)c2)CCCc2cc(O)ccc21)CCCCS(=O)(=O)CCCC(F)(F)C(F)(F)F` [Example 7, 8-(3-Hydroxyphenyl)-9-[5-(methyl{4-[(4,4,5,5,5-pentafluoropentyl)sulphonyl]butyl}amino)pentyl]-6,7-dihydro-5H-benzo[7]annulen-3-ol], the IC50 on oestrogen receptor (ER) was 5 nM. Besides, the “Stimulation” value in data set [1] amounted to 1.8. The inhibition in vivo at 0.3 mg/kg in data set [2] turned out to be 31%.
Take `CN(CCCCCCC1=C(c2cccc(O)c2)CCCc2cc(O)ccc21)CCCS(=O)(=O)CCCC(F)(F)C(F)(F)F` [Example 13, 8-(3-Hydroxyphenyl)-9-[6-(methyl{3-[(4,4,5,5,5-pentafluoropentyl)sulphonyl]propyl}amino)hexyl]-6,7-dihydro-5H-benzo[7]annulen-3-ol]: the IC50 on oestrogen receptor (ER) was 3 nM. Moreover, the inhibition in vivo at 0.3 mg/kg in data set [2] was 79%.
The corresponding values for `CN(CCCCCCC1=C(c2cccc(O)c2)CCCc2cc(O)ccc21)CCCCCCS(=O)(=O)CCCC(F)(F)C(F)(F)F` [Example 19, 8-(3-Hydroxyphenyl)-9-[6-(methyl{6-[(4,4,5,5,5-pentafluoropentyl)sulphonyl]hexyl}amino)hexyl]-6,7-dihydro-5H-benzo[7]annulen-3-ol] are 5 nM and 38%.
Regarding `CN(CCCCCCC1=C(c2cc(O)ccc2F)CCCc2cc(O)ccc21)CCCS(=O)(=O)CCCC(F)(F)C(F)(F)F` [Example 23, 8-(2-Fluoro-5-hydroxyphenyl)-9-[6-(methyl{3-[(4,4,5,5,5-pentafluoropentyl)sulphonyl]propyl}amino)hexyl]-6,7-dihydro-5H-benzo[7]annulen-3-ol], the IC50 at oestrogen receptor (ER) amounted to 2 nM. Moreover, the inhibition in vivo at 0.3 mg/kg in data set [2] was determined as 77%.
With `CN(CCCCCCC1=C(c2ccc(F)c(O)c2)CCCc2c1ccc(O)c2Cl)CCCS(=O)(=O)CCCC(F)(F)C(F)(F)F` [Example 24, 4-Chloro-8-(4-fluoro-3-hydroxyphenyl)-9-[6-(methyl{3-[(4,4,5,5,5-pentafluoropentyl)sulphonyl]propyl}amino)hexyl]-6,7-dihydro-5H-benzo[7]annulen-3-ol], at oestrogen receptor (ER), the IC50 is 13 nM. Moreover, in data set [2], the inhibition in vivo at 0.3 mg/kg was 14%.
In the case of `CN(CCCCCCC1=C(c2ccc(O)cc2)CCCc2cc(O)ccc21)CCCS(=O)(=O)CCCC(F)(F)C(F)(F)F` [Example 27, 8-(4-Hydroxyphenyl)-9-[6-(methyl{3-[(4,4,5,5,5-pentafluoropentyl)sulphonyl]propyl}amino)hexyl]-6,7-dihydro-5H-benzo[7]annulen-3-ol], the IC50 at oestrogen receptor (ER) was found to be 1 nM. Moreover, the “Stimulation” value in data set [1] was determined as 2.4. Besides, the inhibition in vivo at 0.3 mg/kg in data set [2] was 80%.
For `CN(CCCCCCC1=C(c2cccnc2)CCCc2cc(O)ccc21)CCCS(=O)(=O)CCCC(F)(F)C(F)(F)F` [Example 44, 9-[6-(Methyl{3-[(4,4,5,5,5-pentafluoropentyl)sulphonyl]propyl}amino)hexyl]-8-(3-pyridyl)-6,7-dihydro-5H-benzo[7]annulen-3-ol], the IC50 on oestrogen receptor (ER) was 7 nM. In data set [2], the inhibition in vivo at 0.3 mg/kg worked out at 32%.
The corresponding values for `CN(CCCCCCC1=C(c2ccc(S(C)(=O)=O)cc2)CCCc2cc(O)ccc21)CCCS(=O)(=O)CCCC(F)(F)C(F)(F)F` [Example 49, 8-(4-Mesylphenyl)-9-[6-(methyl{3-[(4,4,5,5,5-pentafluoropentyl)sulphonyl]propyl}amino)hexyl]-6,7-dihydro-5H-benzo[7]annulen-3-ol] are 3 nM and 72%.
Turning to `CN(CCCCCCC1=C(c2cccc(O)c2)CCCc2cc(O)ccc21)CCCS(=O)(=O)CCCC(F)(F)F` [Example 51, 8-(3-Hydroxyphenyl)-9-[6-(methyl{3-[(4,4,4-trifluorobutyl)sulphonyl]propyl}amino)hexyl]-6,7-dihydro-5H-benzo[7]annulen-3-ol], the IC50 at oestrogen receptor (ER) worked out at 2 nM. In addition, the inhibition in vivo at 0.3 mg/kg in data set [2] is 62%.
Consider `CN(CCCCCCC1=C(c2cccc(O)c2)CCCc2cc(O)ccc21)CCCS(=O)(=O)CCC(F)(F)F` [Example 56, 8-(3-Hydroxyphenyl)-9-[6-(methyl{3-[(3,3,3-trifluoropropyl)sulphonyl]propyl}amino)hexyl]-6,7-dihydro-5H-benzo[7]annulen-3-ol], for which the IC50 on oestrogen receptor (ER) is 3 nM. The inhibition in vivo at 0.3 mg/kg in data set [2] worked out at 33%.
On to `CN(CCCCCCC1=C(c2ccccc2)CCCc2cc(O)ccc21)CCCCS(=O)(=O)CCCC(F)(F)F` [Example 58, 9-[6-(Methyl{4-[(4,4,4-trifluorobutyl)sulphonyl]butyl}amino)hexyl]-8-phenyl-6,7-dihydro-5H-benzo[7]annulen-3-ol], for which, at oestrogen receptor (ER), the IC50 was found to be 3 nM. The inhibition in vivo at 0.3 mg/kg in data set [2] was determined as 88%.
As for `CN(CCCCCCC1=C(c2ccccc2)CCCc2c1ccc(O)c2Cl)CCCS(=O)(=O)CCCC(F)(F)C(F)(F)F` [Example 102, 4-Chloro-9-[6-(methyl{3-[(4,4,5,5,5-pentafluoropentyl)sulphonyl]propyl}amino)hexyl]-8-phenyl-6,7-dihydro-5H-benzo[7]annulen-3-ol], the IC50 at oestrogen receptor (ER) turned out to be 32 nM. For the same compound, in data set [2], the inhibition in vivo at 0.3 mg/kg was 24%.
Regarding `O=C(c1ccc(OCCN2CCCCC2)cc1)c1c(-c2ccc(O)cc2)sc2cc(O)ccc12` [raloxifene hydrochloride, raloxifene, reference compound], the “Stimulation” value in data set [1] was determined as 3.1.
